Test results from patent US20240124409A1, “GUAIANOLIDE SESQUITERPENE LACTONE DERIVATIVES AND PHARMACEUTICAL USE THEREOF” (NANJING UNIVERSITY OF CHINESE MEDICINE, priority 2021, published 2024).

Tests used:
[1] = tested on: mouse acute lung injury model; experiment: Mouse acute lung injury model (LPS), ELISA; format: in vivo, C57BL/6 mice; settings: title: serum (text b290: lung tissues)
Experimental: In addition to the normal group injected intragastrically with PBS, other mice were injected intraperitoneally with LPS (7.5 mg/kg) to establish acute lung injury models. Three days before model establishment, the parent drug 1 (0.4 and 4 μmol/kg), the hydrochloride 22 (0.4 and 4 μmol/kg), the fumarate 23 (0.4 and 4 μmol/kg) and the positive drug Dex (12 μmol/kg) were administered intragastrically in advance, and LPS (7.5 mg/kg) was injected intraperitoneally half an hour after administration on the third day.
abdominal cavity was opened. The lungs were taken out, and rinsed twice with pre-cooled PBS. […] The remaining tissues were frozen at −70° C. for subsequent use.
20 mg of lung tissues were accurately weighed, rinsed with pre-cooled PBS solution, cut into small pieces by ophthalmic surgical scissors, and put into a glass homogenizer, into which was added 180 μL PBS (containing 1 mM PMSF). The mixture was homogenized at 60 HZ for 180 s, and centrifuged at 3000 rpm/min at 4° C. for 20 min. 1 μL supernatant was taken, the protein concentration of which was measured with Nanodrop and leveled, and could be used for subsequent experiments.

mouse sepsis model = experiment: Mouse sepsis model (LPS), Q-PCR of inflammatory factors; format: in vivo, C57BL/6 mice; set-up: key: relative mRNA by 2^−ΔΔCt, normalized to Gapdh
Excerpt: The mice were randomly divided into 8 groups, one of which was randomly selected as the normal group, and the other 7 groups were the model group, the parent drug 1 (0.4 and 4 μmol/kg), the hydrochloride 22 (4 μmol/kg), the fumarate 23 (0.4 and 4 μmol/kg) and dexamethasone (Dex, 12 μmol/kg) groups, respectively, with 6 mice in each group. 5 days before model establishment, the parent drug 1 (0.4 and 4 μmol/kg), the hydrochloride 22 (4 μmol/kg), the fumarate 23 (0.4 and 4 μmol/kg) and Dex (12 μmol/kg) were administered intragastrically. The mice in the normal group and model group were administered intragastrically the same volume of the solvent 0.5% CMC-Na. LPS (10 mg/kg) was injected intraperitoneally 1 hour after administration on the last day to establish a mouse sepsis model.
At 6 h after intraperitoneal injection of LPS, the mice were sacrificed by cervical dislocation, and the abdominal cavity was opened. The lungs, livers and kidneys were taken out, and rinsed twice with pre-cooled PBS. The lung tissues, liver left lobe tissues and kidney tissues of the mice were cut, and fixed with 4% paraformaldehyde for 24-48 h. The remaining tissues were frozen at −70° Cfor subsequent use.
20 mg of kidney, lung and liver tissues were accurately weighed, rinsed with pre-cooled PBS solution, cut into small pieces by ophthalmic surgical scissors, and put into a glass homogenizer, into which was added 1 mL Trizol reagent for grinding to prepare tissue homogenate. Subsequently, the homogenate was transferred into a 1.5 mL EP tube without RNase and lysed on ice for 10 min. 200 μL chloroform was added, and the mixture was shaken violently, stood on ice for 3-5 min, and centrifuged at 12000 rpm and 4° C. for 15 min. The supernatant was aspirated carefully into a new 1.5 mL EP tube without RNase, into which was added the same volume of pre-cooled isopropanol, stood on an ice bath for 30 min, centrifuged at 12000 rpm and 4° C. for 10 min, and the supernatant was discarded. 75% ethanol-DEPC solution was added to wash the precipitate, and the total RNA was obtained by inversion and air drying on flat paper. Subsequently, 10 μL of DEPC treated water was added for dissolution. 1 μL of the total RNA solution was taken, and diluted to 100 times, the OD values of which at 260 nm and 280 nm were measured with a full wavelength microplate reader. If the ratio of OD260/OD280 is between 1.8 and 2.0, it is said that the extracted RNA has a high purity, i.e., it can be used in subsequent experiments.
Subsequent experiments were carried out with 20 μL of a reverse transcription reaction system according to the method described in the kit instructions:
Subsequent experiments were carried out with 20 μL of a reaction system according to the method described in the kit instructions:
The above reagents were added into a micro-reaction tube, sealed with a sealing membrane, and placed in a Q-PCR instrument. The parameters were set according to the following reaction conditions to carry out the amplification experiment. The reaction conditions were as follows:
The threshold cycle (Ct) value of each group was recorded. Calculating and analyzing were carried out by the 2^−ΔΔCt method (the expression level of the control gene Gapdh was set to 1 to correct the expression level of the target gene).

[2] = Table 12, title 'in lung' (text b281: liver), 0.4 μmol/kg i.g.
[3] = Table 12, title 'in lung' (text b281: liver), 4 μmol/kg i.g.

Structure (SMILES)	IL-1β ([1]; 0.4 μmol/kg) [pg/mL]	IL-6 ([1]; 0.4 μmol/kg) [pg/mL]	IL-1β ([1]; 4 μmol/kg) [pg/mL]	IL-6 ([1]; 4 μmol/kg) [pg/mL]	Il1 mRNA expression (mouse sepsis model; [2])	Il6 mRNA expression (mouse sepsis model; [2])	Tnf mRNA expression (mouse sepsis model; [2])	Il1 mRNA expression (mouse sepsis model; [3])	Il6 mRNA expression (mouse sepsis model; [3])	Tnf mRNA expression (mouse sepsis model; [3])	Il1 mRNA expression (mouse sepsis model; kidney, 0.4 μmol/kg i.g.)	Il6 mRNA expression (mouse sepsis model; kidney, 0.4 μmol/kg i.g.)	Tnf mRNA expression (mouse sepsis model; kidney, 0.4 μmol/kg i.g.)	Il1 mRNA expression (mouse sepsis model; kidney, 4 μmol/kg i.g.)	Il6 mRNA expression (mouse sepsis model; kidney, 4 μmol/kg i.g.)	Tnf mRNA expression (mouse sepsis model; kidney, 4 μmol/kg i.g.)	Il1 mRNA expression (mouse sepsis model; lung, 0.4 μmol/kg i.g.)	Il1 mRNA expression (mouse sepsis model; lung, 4 μmol/kg i.g.)	Il6 mRNA expression (mouse sepsis model; lung, 4 μmol/kg i.g.)	Tnf mRNA expression (mouse sepsis model; lung, 4 μmol/kg i.g.)	other results
C=C1C(=O)O[C@@H]2[C@@H]3[C@]4(CC[C@@]3(C)O)C[C@]4(C)CC[C@@H]12 [Compound 1]	1824.88 ± 32.73	2760.57 ± 288.02	945.66 ± 36.71	1314.91 ± 231.08	11.24 ± 2.98	8.86 ± 3.11	8.75 ± 2.25	4.82 ± 0.58	5.20 ± 0.87	7.09 ± 0.99	7.01 ± 0.33	7.55 ± 2.08	7.17 ± 1.22	3.05 ± 0.58	3.11 ± 0.29	6.59 ± 0.18	15.29 ± 0.88	7.89 ± 1.44	11.67 ± 1.84	7.99 ± 1.36	Il6 mRNA expression (mouse sepsis model; lung, 0.4 μmol/kg i.g.): 19.17 ± 0.51; Tnf mRNA expression (mouse sepsis model; lung, 0.4 μmol/kg i.g.): 8.58 ± 0.85
CN(C)C[C@@H]1C(=O)O[C@H]2[C@H]1CC[C@@]1(C)C[C@]13CC[C@@](C)(O)[C@H]23 [Compound 22]	1570.02 ± 62.95	2348.32 ± 202.75	708.74 ± 38.40	1172.00 ± 240.50				3.07 ± 0.29	3.93 ± 0.90	5.71 ± 0.61				2.76 ± 0.59	2.43 ± 0.64	6.20 ± 0.60		5.22 ± 0.90	7.16 ± 0.71	6.52 ± 0.29	
CN(C)C[C@@H]1C(=O)O[C@H]2[C@H]1CC[C@@]1(C)C[C@]13CC[C@@](C)(O)[C@H]23 [Compound 23]	1623.55 ± 32.64	2585.26 ± 273.50	888.28 ± 35.20	1288.32 ± 123.80	10.46 ± 1.55	9.13 ± 0.80	7.63 ± 1.97	4.36 ± 0.94	4.97 ± 0.77	7.10 ± 1.09	6.56 ± 0.88	6.05 ± 0.19	6.70 ± 0.80	2.82 ± 0.33	2.70 ± 0.52	6.04 ± 1.62	13.30 ± 0.88	6.79 ± 0.72	9.10 ± 1.20	8.67 ± 1.51	Il6 mRNA expression (mouse sepsis model; lung, 0.4 μmol/kg i.g.): 18.40 ± 3.16; Tnf mRNA expression (mouse sepsis model; lung, 0.4 μmol/kg i.g.): 8.79 ± 1.18
